Experimental data published in ChEMBL document CHEMBL4665675 (J Med Chem, 2020).
Values belong to the compound of their own block, whether it stands above or below them.

Columns and labels:
[1] = tested on: HaCaT; assay: Cytotoxicity against human HaCaT cells incubated for 72 hrs by MTT assay; format: functional, cell-based
[2] = tested on: PANC-1; assay: Cytotoxicity against human PANC1 cells incubated for 72 hrs by MTT assay; format: functional, cell-based; settings: PANC-1, 72 h
[3] = Inhibition of calf brain tubulin by turbidimetry; set-up: species or system Bos taurus
[4] = tested on: DU-145; assay: Antiproliferative activity against human DU145 cells incubated for 72 hrs by WST assay; format: functional, cell-based; settings: DU-145, 72 h
[5] = tested on: PANC-1; assay: Antiproliferative activity against human PANC1 cells incubated for 72 hrs by WST assay; format: functional, cell-based; settings: PANC-1, 72 h
[6] = target: Tubulin; assay: Inhibition of tubulin polymerization (unknown origin); format: protein-complex assay, Homo sapiens
[7] = tested on: HeLa; assay: Cytotoxicity against human HeLa cells after 24 to 72 hrs by Cell Titer Blue assay; format: cell-based
[8] = target: T1, carboxylesterase 1 (CES1) (Homo sapiens, UniProt P23141); assay: Substrate activity at human carboxylesterase 1 expressed in baculovirus infected Sf9 insect cells assessed as enzyme-catalysed compound cleavage incubated for 2 hrs by HPLC analysis; format: ADME; settings: read-out: Activity
T1 sequence (P23141 whole entry): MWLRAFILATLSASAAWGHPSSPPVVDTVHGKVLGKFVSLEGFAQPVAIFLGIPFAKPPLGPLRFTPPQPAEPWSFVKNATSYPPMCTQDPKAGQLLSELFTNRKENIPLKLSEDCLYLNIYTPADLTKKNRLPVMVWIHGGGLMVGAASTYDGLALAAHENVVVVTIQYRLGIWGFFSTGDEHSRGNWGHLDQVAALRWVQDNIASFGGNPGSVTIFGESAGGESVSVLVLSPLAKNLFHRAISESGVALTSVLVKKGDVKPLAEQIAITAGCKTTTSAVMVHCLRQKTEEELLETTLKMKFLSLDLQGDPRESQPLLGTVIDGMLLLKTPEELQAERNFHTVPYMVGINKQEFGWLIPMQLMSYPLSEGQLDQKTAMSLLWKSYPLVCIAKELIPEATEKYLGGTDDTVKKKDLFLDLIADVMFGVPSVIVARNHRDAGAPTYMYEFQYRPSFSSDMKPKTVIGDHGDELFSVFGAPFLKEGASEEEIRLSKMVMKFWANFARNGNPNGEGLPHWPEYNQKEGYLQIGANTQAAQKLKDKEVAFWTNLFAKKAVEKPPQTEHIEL

[9] = tested on: SF-268; assay: Cytotoxicity against human SF-268 cells by calcein AM reagent based fluorescence method; format: functional, cell-based
[10] = tested on: SF-268; assay: Cytotoxicity against human SF-268 cells by cell titer-glow assay; format: functional, cell-based
[11] = tested on: HCT-116; assay: Cytotoxicity against human HCT-116 cells by calcein AM reagent based fluorescence method; format: functional, cell-based
[12] = tested on: HCT-116; assay: Cytotoxicity against human HCT-116 cells by cell titer-glow assay; format: functional, cell-based
[13] = tested on: BJAB; assay: Cytotoxicity against human BJAB cells; format: functional, cell-based
[14] = tested on: KB 3-1; assay: Antiproliferative activity against human KB-31 cells incubated for 96 hrs by spectrophotometric method; format: functional, cell-based; settings: KB 3-1, 96 h
[15] = Antiproliferative activity against human KB-8511 cells incubated for 96 hrs by spectrophotometric method; format: functional, cell-based; settings: KB-ChR-8-5-11, 96 h
[16] = species on record: Bos taurus; assay: Inhibition of bovine brain tubulin polymerization preincubated for 15 mins followed by GTP addition and measured for 30 mins by spectrophotometric method
[17] = Inhibition of porcine tubulin polymerization by UV/visible spectrophotometry; set-up: species or system Sus scrofa
[18] = Inhibition of bovine brain tubulin polymerization preincubated for 15 mins followed by GTP addition; set-up: species or system Bos taurus
[19] = tested on: KB; assay: Antiproliferative activity against human KB cells incubated for 36 hrs; format: functional, cell-based
[20] = tested on: P388; assay: Antiproliferative activity against mouse P388 cells incubated for 36 hrs; format: functional, cell-based; settings: P388, 36 h
[21] = tested on: A549; assay: Antiproliferative activity against human A549 cells incubated for 36 hrs; format: functional, cell-based; settings: A549, 36 h
[22] = tested on: RPMI-7951; assay: Antiproliferative activity against human RPMI-7951 cells incubated for 36 hrs; format: functional, cell-based; settings: RPMI-7951, 36 h
[23] = tested on: HCT-8; assay: Antiproliferative activity against human HCT-8 cells incubated for 36 hrs; format: functional, cell-based; settings: HCT-8, 36 h
[24] = tested on: TE-671; assay: Antiproliferative activity against human TE-671 cells incubated for 36 hrs; format: functional, cell-based; settings: TE-671, 36 h

Structure (SMILES): COC(=O)c1ccc2c(c1)[C@@H](NC(=O)CO)CCc1cc(OC)c(OC)c(OC)c1-2
IC50 [1]: 16 nM | IC50 [2]: 80 nM

IC50 [3]: 330 nM
Structure (SMILES): COc1ccc2c(c1)/C(=N\O)CCc1cc(OC)c(OC)c(OC)c1-2

IC50 [4]: 760 nM | IC50 [5]: 7900 nM
Structure (SMILES): COc1cc2c(c(OC)c1OC)-c1ccc(F)cc1C(NC(C)=O)CC2 (configuration not stated)

Structure (SMILES): COc1cc2c(c(OC)c1OC)-c1ccc(OC)c(=O)cc1C(=O)CC2
IC50 [6]: 1100 nM

Structure (SMILES): C=C1COc2cc3c(cc21)-c1c(cc(OC)c(OC)c1OC)CC[C@@H]3NC(=O)CO
IC50 [1]: 3 nM | IC50 [2]: 16 nM

IC50 [3]: 670 nM
Structure (SMILES): COc1ccc2c(c1)-c1nc(N)ncc1Cc1cc(OC)c(OC)c(OC)c1-2

metabolised at 2 h [8]: 33%
Structure (SMILES): COc1cc2c(c(OC)c1OC)-c1cc(NC(=O)c3ccc(CN[C@@H](CC(C)C)C(=O)OC4CCCC4)cc3)ccc1[C@@H](NC(C)=O)CC2
IC50 [7]: 1480 nM

metabolised at 2 h [8]: 0%
Structure (SMILES): COc1cc2c(c(OC)c1OC)-c1ccc(NCCCC(=O)N[C@H](C(=O)OC3CCCC3)c3ccccc3)c(=O)cc1[C@@H](NC(C)=O)CC2
IC50 [7]: 1240 nM

Structure (SMILES): COc1cc2c(c(OC)c1OC)-c1ccc(OC)c(=O)cc1CCC2
IC50 [6]: 2600 nM

Structure (SMILES): COc1cc2c(c(OC)c1OC)-c1ccc(OC)c(=O)cc1[C@@H](NC(=O)CN(OC)C1C[C@@H](O)[C@@H](O)CO1)CC2 (some centres not stated)
IC50 [9]: 300 nM | IC50 [10]: 300 nM | IC50 [11]: 300 nM | IC50 [12]: 300 nM

Structure (SMILES): CCCCCCCCCCCC(=O)OCc1cn([C@H]2CCc3cc(OC)c(OC)c(OC)c3-c3ccc(OC)c(=O)cc32)nn1
IC50 [13]: 4 nM

Structure (SMILES): COc1cc2c(c(OC)c1OC)-c1ccc(OC)c(=O)cc1[C@@H](NC(=O)CN(OC)C1O[C@H](C(C)=O)[C@H](O)[C@H](O)[C@H]1O)CC2 (some centres not stated)
IC50 [9]: 300 nM | IC50 [10]: 300 nM | IC50 [11]: 300 nM | IC50 [12]: 300 nM

IC50 [14]: > 1000 nM | inhibition [16]: 0%
Structure (SMILES): CCOC(=O)NCc1c2c(c(OC)c(OC)c1OC)-c1ccc(OC)c(=O)cc1[C@@H](NC(C)=O)CC2
IC50 [15]: > 1000 nM

metabolised at 2 h [8]: 0%
Structure (SMILES): COc1cc2c(c(OC)c1OC)-c1ccc(NCCC(O)C(=O)N[C@H](C(=O)OC3CCCC3)c3ccccc3)c(=O)cc1[C@@H](NC(C)=O)CC2 (some centres not stated)
IC50 [7]: 220 nM

Structure (SMILES): CCCCCCCCCCCCCCCC(=O)OCC(COP(=O)([O-])OCC[N+](C)(C)C)OC(=O)CCCCCCCCCc1n[nH]c(CC(=O)OCC(=O)N[C@H]2CCc3cc(OC)c(OC)c(OC)c3-c3ccc(C(=O)OC)cc32)n1 (some centres not stated)
IC50 [1]: 400 nM | IC50 [2]: 400 nM

metabolised at 2 h [8]: 18%
Structure (SMILES): COc1cc2c(c(OC)c1OC)-c1ccc(NCCCC(=O)N[C@@H](CC(C)C)C(=O)OC3CCCC3)c(=O)cc1[C@@H](NC(C)=O)CC2
IC50 [7]: 1190 nM

IC50 [6]: 1600 nM
Structure (SMILES): COc1cc2c(c(OC)c1OC)-c1ccc(OC)c(=O)cc1CC=C2

Structure (SMILES): COc1ccc2c(c1)[C@@H](NC(C)=O)CCc1cc(OC)c(OC)c(OC)c1-2
IC50 [4]: 780 nM | IC50 [5]: 80 nM | IC50 [3]: 300 nM

IC50 [17]: 1000 nM
Structure (SMILES): COc1ccc2c(c1O)COCc1cc(OC)c(OC)c(OC)c1-2

IC50 [18]: 3600 nM | IC50 [19]: 144 nM | IC50 [20]: 144 nM | IC50 [21]: 240 nM | IC50 [23]: 160 nM
Structure (SMILES): COc1cc2c(c(OC)c1OC)-c1ccc(SC)c(=O)cc1[C@@H](CO)C2
IC50 [22]: 134 nM | IC50 [24]: 1320 nM

IC50 [14]: > 1000 nM | inhibition [16]: 0%
Structure (SMILES): COc1c(CNC(C)=O)c2c(c(OC)c1OC)-c1ccc(OC)c(=O)cc1[C@@H](NC(C)=O)CC2
IC50 [15]: > 1000 nM
